Measured values reported in US20240317833A1, “NON-HLA RESTRICTED T CELL VACCINE FOR TCR GAMMA ALTERNATE READING FRAME PROTEIN (TARP) PROTEIN EXPRESSING CANCERS” (PDS BIOTECHNOLOGY CORPORATION, priority 2022, published 2024).
No end group written: not given here.

Test system: TARP antigen-specific T cells
Test: IFN-γ ELISPOT on splenocytes of vaccinated HLA-A2 transgenic (AAD) mice, s.c. day 0 and day 7
Type: in vivo, HLA-A2 expressing transgenic mice (AAD mice)
Conditions: for response when used as a stimulatory peptide for the ELISPOT: HLA-A2 transgenic mouse model; for TARP 21-40 ELISPOT responses: FIG. 8; for TARP 29-37 (9V) ELISPOT responses: encapsulated in R-DOTAP nanoparticles, stimulatory peptide TARP 29-37 (9V) in water/sucrose
[1] = FIG. 6, formulated with R-DOTAP nanoparticles, stimulatory peptide SEQ ID NO:3 (9V), antigen dose 100 micrograms
[2] = FIG. 7, formulated with R-DOTAP nanoparticles, stimulatory peptide TARP 21-40 (SEQ ID NO:6), antigen dose 100 micrograms
[3] = formulated with R-DOTAP nanoparticles, two immunizations, stimulatory peptide TARP 21-40 (17V) in water/sucrose
[4] = FIG. 5, formulated in CFA, stimulatory peptide TARP 27-35 (SEQ ID NO:2), antigen dose 100 micrograms

Substance | antigen-specific ELISPOT responses [1] | antigen-specific ELISPOT responses [2] | TARP 21-40 ELISPOT responses [3] | TARP 29-37 (9V) ELISPOT responses (FIG. 9, two immunizations) | antigen-specific ELISPOT responses [4] | further results
FLRNFSLMV (not fully specified) [SEQ ID NO:3] | no antigen-specific ELISPOT responses | no or very weak antigen-specific ELISPOT responses | no or very weak TARP 21-40 ELISPOT responses | did not appear to elicit any TARP 29-37 (9V) ELISPOT responses |  | response when used as a stimulatory peptide for the ELISPOT (FIG. 6): apparently inactive; ELISPOT responses to TARP 29-37 (9V) (FIG. 9, Complete Freund's Adjuvant (CFA), stimulatory peptide TARP 29-37 (9V)): Very weak or no ELISPOT responses
RRLEHTFVFLRNFSLMLLRG (not fully specified) [SEQ ID NO:6] | no antigen-specific ELISPOT responses | no or very weak antigen-specific ELISPOT responses | no or very weak TARP 21-40 ELISPOT responses | did not appear to elicit any TARP 29-37 (9V) ELISPOT responses | no antigen-specific ELISPOT responses | response when used as a stimulatory peptide for the ELISPOT (FIG. 7): inactive or very weakly active; TARP 21-40 ELISPOT responses (Complete Freunds Adjuvant (CFA), stimulated with TARP 21-40 (SEQ ID NO:6)): very weakly active
KSS-FLRNFSLMV (not fully specified; palmitoylated; SITE 1 Palmitoyl modified residue) [SEQ ID NO:10, palmitoylated TARP 2 (29-37)] |  |  |  |  | no antigen-specific ELISPOT responses | 
SSEEEDE-RRLEHTFVFLRNFSLMLLRG (SSEEEDERRLEHTFVFLRNFSLMLLRG; Anionic amino acids) [SEQ ID NO:21] | no antigen-specific ELISPOT responses | no or very weak antigen-specific ELISPOT responses | no or very weak TARP 21-40 ELISPOT responses |  | no antigen-specific ELISPOT responses | mice responding to vaccination (FIG. 7, R-DOTAP nanoparticles, antigen dose 100 micrograms): two of six
KSS-RRLEHTFVFLRNFSLMLLRG (not fully specified; palmitoylated; SITE 1 Palmitoyl modified residue) [SEQ ID NO:13, palmitoylated TARP 6 (21-40)] | no antigen-specific ELISPOT responses | no or very weak antigen-specific ELISPOT responses | no or very weak TARP 21-40 ELISPOT responses |  | no antigen-specific ELISPOT responses | antigen-specific ELISPOT responses (FIG. 6, formulated in CFA, stimulatory peptide SEQ ID NO:3 (9V), antigen dose 100 micrograms): no antigen-specific ELISPOT responses; antigen-specific ELISPOT responses (FIG. 7, formulated in CFA, stimulatory peptide TARP 21-40 (SEQ ID NO:6), antigen dose 100 micrograms): no or very weak antigen-specific ELISPOT responses
FVFLRNFSL (not fully specified) [SEQ ID NO:2] |  |  |  |  |  | response when used as a stimulatory peptide for the ELISPOT (FIG. 5): apparently inactive
